Source: US20200397853A1, “TREATMENT OF A HEART DISEASE” (Yeda Research and Development Co. Ltd., priority 2018, published 2020)

Legend:
Format in all cases: in vivo, mice
infarcted hearts [1] = assay: Multiplex cytokine ELISA of infarcted hearts
Experimental: Myocardial infarction in adult mice was performed as follows: mice were sedated with isoflurane (Abbott Laboratories) and following tracheal intubation, were artificially ventilated. Lateral thoracotomy at the third intercostal space was performed by blunt dissection of the intercostal muscles following skin incision. Following ligation of the left anterior descending coronary artery, 2 mg/animal/day of GA (batch #164F0105; 24992916) or PBS were injected according to the experimental protocol (described in the Results). Following treatment, thoracic wall incisions were sutured with 6.0 non-absorbable silk sutures, and the skin wound closed using a skin adhesive. Mice were then warmed for several minutes until recovery. For native protein extraction, hearts were minced using a mortar and pestle under liquid nitrogen, and the resulting powder was further homogenized using rotor—stator homogenizer with a native extraction buffer (0.5% triton in PBS with protease inhibitor cocktail). Resulting extracts were equilibrated for protein concentration, and subjected to mouse cytokine 16-plex ELISA (#110949MS, Quansys Biosciences, USA) according to manufacturer instructions. To broaden the understanding of the molecular effectors influenced by GA treatment, the cytokine milieu of the GA treated infarcted hearts was analyzed. For that, infarcted hearts were harvested at 24 h, 96 h and 14 days post MI. Native protein lysates were prepared and subjected to multiplex cytokine ELISA. At 24 hr post MI, both IL-6 and IL-10 levels were increased (FIG. 6A). […] Importantly, the levels of IL-6 as well as those of other pro-inflammatory cytokines in GA treated hearts were reduced 14 days post MI (FIG. 6C). These findings might underscore the importance of regulating a transient expression of pro-inflammatory cytokines occurring in a pro-regenerative scenario, similar to what was detected in the GA treated hearts. Another cytokine that was elevated after GA treatment was IL-4 (FIG. 6B). Both IL-10 and IL-4 are considered as anti-inflammatory cytokines that induce Th-2 differentiation, a cell population previously shown to be affected by GA (40-42). […] This chemokine was previously shown to induce IL-6 expression and to have beneficial effect on cardiac remodeling post MI^29. […] Taken together, the differential expression of cytokines in the GA treated infarcted heart might reveal the molecular mechanism that allows GA to modulate the immune response, supporting cardiac regeneration post MI.

infarcted hearts [2] = assay: FACS analysis of neutrophils and macrophages in infarcted hearts
Experimental: Myocardial infarction in adult mice was performed as follows: mice were sedated with isoflurane (Abbott Laboratories) and following tracheal intubation, were artificially ventilated. Lateral thoracotomy at the third intercostal space was performed by blunt dissection of the intercostal muscles following skin incision. Following ligation of the left anterior descending coronary artery, 2 mg/animal/day of GA (batch #164F0105; 24992916) or PBS were injected according to the experimental protocol (described in the Results). Following treatment, thoracic wall incisions were sutured with 6.0 non-absorbable silk sutures, and the skin wound closed using a skin adhesive. Mice were then warmed for several minutes until recovery. Single cell suspensions of hearts harvested at different time point post MI were generated immediately before analysis by flow cytometry, as previously described^21. Briefly, single hearts were minced and digested in collagenase II/Dispase solution in PBS with 1 mM CaCl2 (2 mg/ml collagenase II, 1.2 U/ml Dispase) for 3 rounds of 15 minutes at 37° C., followed by mechanical separation by pippetation. Digested samples were passed through a 40-μm filter, washed, and suspended in FACS buffer (PBS 0.5% BSA, 2 mM EDTA) for staining. Samples were stained with antibodies from Miltenyi biotec:CD45-Viogreen, CD11b-PE, Ly6G-Vioblue, Ly6C-FITC, F4/80-APC, CCR2-APC-Vio770, MHCII-PE-Vio770. 7-AAD was used as a viability marker. Staining and sample analysis were all performed by standard procedure on a LSR-II FACS machine. GA has an established influence on the immune response, especially the T-helper 2 (Th2) lymphocyte population^22-24. To investigate the molecular mechanisms of GA effects, the present inventors sought out to characterize the immune response of infarcted hearts after GA treatment. First, examining the changes in relevant immune populations. For that, infarcted hearts were analyzed by FACS using markers for neutrophils and macrophages. To follow the dynamics of the immune response after MI, injured hearts at 24 hr, 96 hr and 14 days post MI were harvested. […] The effect of GA diminishes after 96 hr, with the expected reduction in neutrophils. […] This trend was recently shown to promote cardiac regeneration^25, and therefore might explain GA regenerative effect.

[3] = tested on: mouse model of MI by LAD ligation; assay: Heart section scar assessment (Masson-Trichrome) after MI
Experimental: (§1) Myocardial infarction in adult mice was performed as follows: mice were sedated with isoflurane (Abbott Laboratories) and following tracheal intubation, were artificially ventilated. Lateral thoracotomy at the third intercostal space was performed by blunt dissection of the intercostal muscles following skin incision. Following ligation of the left anterior descending coronary artery, 2 mg/animal/day of
(§2) GA (batch #164F0105; 24992916) or PBS were injected according to the experimental protocol (described in the Results). Following treatment, thoracic wall incisions were sutured with 6.0 non-absorbable silk sutures, and the skin wound closed using a skin adhesive. Mice were then warmed for several minutes until recovery.
Mouse heart tissues were fixed in 4% paraformaldehyde (PFA) and sectioned. For analysis of cardiac regeneration, following myocardial infarction procedure, paraffin sections were cut through the entire ventricle from apex to base into serial sections with intervals of 0.3 mm. Paraffin sections were cut frontally to include base to apex in each section. […] Scar size was quantified in the section containing the papillary muscle region using ImageJ software based on Masson's trichrome staining. Scar size was calculated as scar size relative to total section size.

Stat3 = assay: Western-blot analysis of pStat3 in hearts post MI; conditions: 4 days after injury (FIG. 7)
Experimental: as §1, §2
Western blotting was performed with the SDS-PAGE Electrophoresis System. Sample extracts were prepared and transferred to PVDF membranes. The following primary antibodies were used: anti-Gapdh (Sigma, PLA0125, 1:3000), anti-pStat3 (1:1000) Horseradish peroxidase anti-mouse, anti-rabbit or anti-goat (Sigma-Aldrich, 1:2000) were used as a secondary antibody.

[4] = tested on: mouse model of MI by LAD ligation; assay: Echocardiography of heart function after myocardial infarction (LAD ligation)
Experimental: as §1, §2
Heart function was evaluated by transthoracic echocardiography performed on sedated mice (isoflurane, Abbott Laboratories) using a Vevo 3100 VisualSonics device.
Mice were divided to the following experimental groups: […]
4. Long GA treatment—performing MI followed by GA (2 mg/animal/day) given i.p. from day 0 up to day 14 or until first animal dies. N=5.
Echo measurements were performed at baseline (day 0), day 2, day 14 and day 35 post MI. Histology analysis was performed post mortem.
Short GA treatment—performing MI followed by GA (2 mg/animal/day) administered i.p. from day 0 up to day 14. N=10. […]
In the clinic, MI patients currently reach medical care in a matter of several hours. To find out the relevance and efficacy of delayed administration of GA, the present inventors created MI by LAD ligation and treated animals at the day of injury, 24 or 48 hours post MI.

glatiramer acetate [GA]
IL-6 level (infarcted hearts [1]; 24 hr post MI (FIG. 6A)): increased
IL-10 level (infarcted hearts [1]; 24 hr post MI (FIG. 6A)): increased
levels of Monocyte Chemoattractant Protein-1 (MCP-1) (infarcted hearts [1]; 96 hr post MI (FIG. 6B)): significant enhancement
IL-6 level (infarcted hearts [1]; 14 days post MI (FIG. 6C)): reduced
levels of other pro-inflammatory cytokines (infarcted hearts [1]; 14 days post MI (FIG. 6C)): reduced
IL-4 level (infarcted hearts [1]; FIG. 6B): elevated
fraction of neutrophils in the infarcted hearts (infarcted hearts [2]; 24 h post MI, vs PBS (FIGS. 5A, B)): decreased
macrophage fraction of immune cells (infarcted hearts [2]; 24 hr post MI, vs PBS (FIGS. 5C, D)): increase
effect on macrophage fraction (infarcted hearts [2]; after 96 hr post MI): diminished
effect on neutrophils (infarcted hearts [2]; after 96 hr post MI): diminishes
cardiac scarring (Masson-Trichrome stained area relative to total area) ([3]; 35 days after MI, larger group, vs PBS (FIG. 2C)): improved significantly
scar area of the 3 representative treated mice ([3]; 35 d post MI, Masson-Trichrome, vs PBS (FIG. 3A)): smaller scar area
levels of phosphorylated Stat3 (pStat3) (Stat3): increased levels
levels of phosphorylated Stat3 (pStat3) (Stat3; listed as Cop): upregulation
fractional shortening (FS), reduction from baseline ([4]; 35 d after MI, GA i.p. 14 d vs PBS (FIG. 1C)): smaller reduction
cardiac function (EF and FS) ([4]; 35 days after MI, larger group, all animals treated by the protocol, vs PBS (FIGS. 2A, B)): improved significantly
EF of the 3 representative treated mice ([4]; 35 d post MI, vs PBS (FIG. 3B)): improved EF
Ejection Fraction (EF) ([4]; 35 d post injury, GA 2 mg/animal/day i.p. day 0 to 14, vs PBS (FIG. 1A)): clear beneficial effect
cardiac function (EF, FS), treatment delayed 24 hours ([4]; treatment started 24 hours post MI, similar levels to treatment at the day of injury (FIGS. 4A-B)): improved cardiac function
cardiac function (EF, FS), treatment delayed 48 hours ([4]; treatment started 48 hours post MI, similar levels to treatment at the day of injury (FIGS. 4A-B)): improved cardiac function
